According to patent US8492329B2, “Bioactive peptides and methods of using same” (Compugen Ltd., priority 2007, dated 2013):
No end group written: not given here.

Columns and labels:
LGR8 (RXFP2) = LGR8 (RXFP2) (Homo sapiens, UniProt Q8WXD0); test: cAMP accumulation (Hit Hunter cAMP kit) in CHO-K1 cells transiently transfected with LGR8; format: cell-based; design: expressed in transfected cells; host or cells: CHO-K1 (transient); conditions: for cAMP inhibition (Gi) effect: 1 uM, LGR8 CHO-K1 cells pre-treated with 10 uM Forskolin, FIG. 1; for change in cAMP, dose response, higher concentrations: concentrations higher than 100 nM (up to 10 uM); for change in cAMP, dose response, higher concentrations / change in cAMP, dose response, lower concentrations: 20 uM Forskolin, FIG. 2; for change in cAMP, dose response, lower concentrations: concentrations lower than 100 nM
Chain of LGR8 (RXFP2) (Q8WXD0 whole entry): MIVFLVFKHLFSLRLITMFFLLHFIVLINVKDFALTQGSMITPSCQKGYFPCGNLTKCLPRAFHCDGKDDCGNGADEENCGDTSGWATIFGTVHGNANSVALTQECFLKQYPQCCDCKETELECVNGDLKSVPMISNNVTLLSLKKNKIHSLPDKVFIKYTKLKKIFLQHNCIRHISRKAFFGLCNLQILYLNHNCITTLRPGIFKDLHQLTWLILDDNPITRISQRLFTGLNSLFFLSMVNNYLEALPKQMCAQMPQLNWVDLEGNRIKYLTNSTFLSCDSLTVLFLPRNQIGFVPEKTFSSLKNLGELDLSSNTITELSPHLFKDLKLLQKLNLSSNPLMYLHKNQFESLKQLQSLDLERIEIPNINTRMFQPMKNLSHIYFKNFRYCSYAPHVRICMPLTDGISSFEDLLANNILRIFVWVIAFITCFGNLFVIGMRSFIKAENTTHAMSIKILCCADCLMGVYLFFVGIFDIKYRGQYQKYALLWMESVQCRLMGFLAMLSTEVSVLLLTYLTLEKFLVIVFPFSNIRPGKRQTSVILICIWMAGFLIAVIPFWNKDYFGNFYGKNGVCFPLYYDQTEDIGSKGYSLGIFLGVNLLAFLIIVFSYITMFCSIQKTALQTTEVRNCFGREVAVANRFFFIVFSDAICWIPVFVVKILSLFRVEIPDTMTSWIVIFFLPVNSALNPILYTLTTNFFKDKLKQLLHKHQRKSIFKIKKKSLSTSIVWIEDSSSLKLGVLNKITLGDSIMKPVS
Method: The ability of Peptides to affect cAMP concentration was examined in CHO-K1 cells transiently transfected with LGR7 (RXFP1) or LGR8 (RXFP2). The experiment measured cAMP concentration in response to the addition of the peptides.
LGR7 (RXFP1) or LGR8 (RXFP2) were transiently transfected into CHO-K1 cells as follows: Cells (12 million) were plated into T75 flasks on the day preceding transfection. Cells were transfected with a GPCR DNA and Gα16 using a lipid technique according to the manufacturer's recommendation. Cells were transfected for 5 hours, then re-plated into 96-well dishes (60,000 cells per well) and grown overnight. Transfected cells were plated into 24 wells of a 96-well plate. Cells were pre-treated with 0.5 mM IBMX (stimulation buffer) for 10 min at 37° C., then stimulated with either a positive control (Relaxin 2) or a candidate peptide (for Gs functional examination), followed by stimulation or a preincubation with 10 μM forskolin (for Gi functional examination). Following a 20 minutes stimulation by incubation with 1 μM of either positive control or the tested peptides, either with or without forskolin, intracellular cAMP was assayed using the Hit Hunter cAMP kit (DiscoveRx Corporation) according to the manufacturer's recommended protocol. Data was converted to nmol of cAMP by running a standard cAMP curve.
Relaxin was used as a positive control. cAMP level was elevated by pre-treatment with forskolin.
The transfected CHO-K1 cells were treated with 10 uM of Forskolin (Applied cell sciences (ACS)) for 10 minutes and then challenged with 1 uM of H2 Relaxin (ACS) (as a positive control), 1 uM of Peptide P59C13V (P59) (SEQ ID NO: 6), and Peptide P74C13V (P74) (SEQ ID NO: 10).
A dose response effect of P59C13V (P59) and P74C13V (P74) on CHO-K1 cells transiently transfected with LGR8 (RXFP2) was further examined (Method as above). CHO-K1 cells transiently transfected with LGR8 (RXFP2) were treated with 20 uM of Forskolin for 10 minutes and then challenged with either INSL3 (as a positive control), P59C13V (SEQ ID NO: 6) or P74C13V (P74) (SEQ ID NO: 10) at increasing concentrations from 1 nM to 10 uM.

[1] = tested on: untransfected CHO-K1 cells; test: ACEA RT-CES cell impedance, untransfected CHO-K1 cells; format: cell-based; conditions: for effect on cell impedance (normalized cell index): P74C13V 10 uM, H2 Relaxin 1 uM, FIG. 11; for dose response activation (cell impedance): data not shown
Source text: ACEA RT-CES screen is a noninvasive and label-free assay for GPCRs that can be used with both engineered and nonengineered cell lines. The assay is based on using cell-electrode impedance to measure minute changes in cellular morphology as a result of ligand-dependent GPCR activation and is described in Naichen Yu, et al., Anal. Chem., 78 (1), 35-43, 2006. 10.1021/ac051695v S0003-2700(05)01695-1. The Rho family of small GTPases, which include Rho, Rac, and CDC42, are well-characterized effectors of oncogenes, growth factor and adhesion-mediated signaling pathways and are not classically thought of as being key effectors for GPCRs. Rho family GTPases participate in a number of cellular processes, the main one being regulation and maintenance of specific structures within the actin cytoskeleton framework. […] The current view of the actin cytoskeleton is that of a dynamic and plastic system that is a reflection and manifestation of the intracellular signaling and not simply a static structure designed to maintain cellular architecture. Since GPCRs couple to the actin cytoskeletal network and induce very defined morphological changes, it is possible to harness this information as a functional and biologically relevant readout for GPCRs.
ACEA biosciences; has designed electronic cell sensor arrays embedded in the bottom of the well of microtiter plates that are capable of measuring minute changes in cell morphology. The electronic sensors measure changes in cell-substrate impedance as a result of the disruption of the ionic environment due to the presence of cell and cell morphology dynamics. The main advantages offered by using cell-substrate impedance and cell morphology as a readout are that both exogenously expressed and endogenous receptors can be assayed without the need for engineering the cell with promiscuous G proteins and reporters or labeling the cells with dyes. In addition, since the readout is noninvasive, multiple stimulations with the same ligand or different ligands can be performed to assess events such as desensitization and receptor cross-talk. Finally, another major aspect of using cell-substrate impedance and cell morphology as a readout is that potentially all GPCRs, regardless of the signaling pathways, can be functionally monitored.
Peptides were synthesized by the solid phase peptide synthesis (SPPS) method, cleaved from the resin, and purified by RP-HPLC unless stated otherwise. […] Final purity of peptide was >90% as measured by RP-HPLC. […]
Before the transfected cells were seeded, […] SFM F12-HAM medium were added to each well of the E-plates and background levels were recorded.
Total cell number was calculated and cells were re-suspended in complete growth medium to cell concentration ranging from 0.3125×10^6/mL up to 0.4375×10^6/mL. […]

cAMP inhibition (Gi) effect (LGR8 (RXFP2))	change in cAMP, dose response, higher concentrations (LGR8 (RXFP2))	change in cAMP, dose response, lower concentrations (LGR8 (RXFP2))	Substance	effect on cell impedance (normalized cell index) [1]	dose response activation (cell impedance) [1]
clear cAMP inhibition (Gi) effect	slight increase (Gs effect)	slight decrease in cAMP	GQKGQVGPPGAAVRRAYAAFSV [Peptide P59C13V]		
clear cAMP inhibition (Gi) effect	no effect	slight increase in cAMP	GQKGQVGPPGAAVRRAYAAFSVGRRAYAAFSV-OH [Peptide P74C13V]	moderate effect	no dose dependent activation but only a moderate activation of the highest concentrations
affected only the LGR7 (RXFP1) receptor			H2 Relaxin: H2 Relaxin (ACS), positive control, known ligand of LGR7 (RXFP1) [reference compound]	moderate effect	no dose dependent activation but only a moderate activation of the highest concentrations
